Source: patent US20040010001A1, “Methods and compositions for modulating cell proliferation and cell death” (priority 1999, published 2004)
Read-outs that look alike come from different tables or passages of the source.

Key:
Assay type in all cases: cell-based
[1] = tested on: Human prostate PC3 tumor cells; experiment: Drug treatment and extracellular bFGF (ELISA), LDH release, cell number; details: for Extracellular LDH, % of control / Extracellular bFGF, % of control / Extracellular concentration bFGF: 72 hours
Method: The experimental conditions are described briefly below. […] The remaining cell number at the end of treatment was counted using a Coulter counter. The extracellular bFGF concentration was measured using ELISA. The release of lactate dehydrogenase (LDH) into the extracellular culture medium is indicative of cell death and gives a measure of the release of cellular content into the culture medium. If the increase in extracellular bFGF level is due to the release of bFGF upon cell death and lysis, the increase in bFGF will be accompanied by an increase in LDH in the same extent. This would result in an higher bFGF level and a constant bFGF-to-LDH ratio. On the other hand, an increase in extracellular bFGF due to an increase in bFGF production and release of bFGF from cells by processes other than cell lysis will result in an higher bFGF level and an higher bFGF-to-LDH ratio.

[2] = tested on: rat lymph node metastasis cells, monolayers; experiment: Drug effect in monolayers of rat lymph node metastasis cells (inhibition of bromodeoxyuridine incorporation); details: 96 h, read-out: Concentration producing 50% inhibition
[3] = tested on: Human lung A459; experiment: FGF-induced resistance, inhibition of BrdU incorporation; details: read-out: Drug concentration needed to produce 50% inhibition
Method: (§1) Prior to drug treatment, cells were incubated for 4 days with tumor CM or with r-aFGF ad/or r-bFGF-containing medium, supplemented with 1% FBS (final protein concentration adjusted to 2 mg/ml). The medium was renewed every other day.
(§2) The antiproliferative drug effect in histocultures was measured as inhibition of ^3H-thymidine incorporation quantified by autoradiography (Yen, W. C. et al. (1996) Pharm. Res. 13:1305-1312) and, for monolayers, as inhibition of BrdU incorporation or as reduction of total proteins by the sulforhodamine B assay (Au, J. L.-S. et al. (1998) Cancer Res. 58:2141-2148). For the latter, the two assays yielded qualitatively similar results. Cell kill induced by 96-hour drug treatment was monitored by the release of LDH into the culture medium. LDH activity was monitored by the conversion of tetrazolium to formazan (detected at 490 nm).
(§3) The experimental conditions are described briefly below. Cells were pretreated with human recombinant r-aFGF and/or r-bFGF for 96 hours and then with drugs for 96 hours. For the studies on cells derived from the human prostate, lung, pharynx, colon and breast cancer cells, the drug effect was determined by the inhibition of BrdU incorporation. For the study on the human leukemic cells, the drug effect was measured by the MTT assay, which measures the number of metabolically active cells (Alley, M. C. et al (1988) Cancer Res 48:589-601).

[4] = tested on: Human breast BC19 (subline of MCF7 transfected with mdr1); experiment: as above; details: read-out: Drug concentration needed to produce 50% inhibition
Method: as §1, §2, §3

[5] = tested on: Human pharynx FaDu; experiment: as above; details: read-out: Drug concentration needed to produce 50% inhibition
Method: as §1, §2, §3

[6] = tested on: Rat prostate MAT-LyLu; experiment: as above; details: read-out: Drug concentration needed to produce 50% inhibition
Method: as §1, §2, §3

[7] = tested on: Human colon HT-29; experiment: as above; details: read-out: Drug concentration needed to produce 50% inhibition
Method: as §1, §2, §3

[8] = tested on: Human prostate PC3; experiment: as above; details: Homo sapiens, read-out: Drug concentration needed to produce 50% inhibition
Method: as §1, §2, §3

[9] = tested on: Human breast MCF7; experiment: as above; details: read-out: Drug concentration needed to produce 50% inhibition
Method: as §1, §2, §3

[10] = tested on: rat primary tumors, histocultures; experiment: Drug effect in histocultures of rat primary tumors (inhibition of 3H-thymidine incorporation); details: Histocultures, Primary, 96 hours, read-out: Concentration producing 50% inhibition
[11] = 96 h, r-aFGF + r-bFGF 0.04 ± 1 ng/ml
[12] = 96 h, r-aFGF + r-bFGF 0.08 ± 1 ng/ml
[13] = 96 h, r-aFGF + r-bFGF 0.32 ± 1 ng/ml
[14] = 96 h, r-aFGF + r-bFGF 0.64 ± 1 ng/ml
[15] = 96 h, r-aFGF + r-bFGF 1 ± 1 ng/ml

- IC50 ([2]; Monolayers (passage 0)): 0.031 ± 0.0023 µM
- IC50 ([2]; Monolayers (passage 1)): 0.0179 ± 0.0012 µM
- IC50 ([2]; Monolayers (passage 2)): 0.011 ± 0.0004 µM
- IC50 ([2]; Monolayers (passage 3)): 0.0078 ± 0.0005 µM
- IC50 ([3]; A459, 96 h, r-aFGF + r-bFGF 0 ng/ml): 0.122 µM
- IC50 ([3]; A459, 96 h, r-aFGF + r-bFGF 0.04 ± 1 ng/ml): 0.118 µM
- IC50 ([3]; A459, 96 h, r-aFGF + r-bFGF 0.08 ± 1 ng/ml): 0.159 µM
- IC50 ([3]; A459, 96 h, r-aFGF + r-bFGF 0.16 ± 1 ng/ml): 0.238 µM
- IC50 ([3]; A459, 96 h, r-aFGF + r-bFGF 0.32 ± 1 ng/ml): 0.309 µM
- IC50 ([3]; A459, 96 h, r-aFGF + r-bFGF 0.64 ± 1 ng/ml): 0.386 µM
- IC50 ([3]; A459, 96 h, r-aFGF + r-bFGF 1 ± 1 ng/ml): 0.582 µM
- IC50 ([3]; A459, r-aFGF 0 ng/ml): 0.122 µM
- IC50 ([3]; A459, r-aFGF 1 ng/ml): 0.12 µM
- IC50 ([3]; A459, r-aFGF 10 ng/ml): 0.123 µM
- IC50 ([3]; A459, r-aFGF 50 ng/ml): 0.118 µM
- IC50 ([3]; A459, r-bFGF 0 ng/ml): 0.119 µM
- IC50 ([3]; A459, r-bFGF 1 ng/ml): 0.118 µM
- IC50 ([3]; A459, r-bFGF 10 ng/ml): 0.238 µM
- IC50 ([3]; A459, r-bFGF 50 ng/ml): 0.285 µM
- IC50 ([4]; r-bFGF 0 ng/ml): 0.128 µM
- IC50 ([4]; r-bFGF 0.01 ng/ml): 0.15 µM
- IC50 ([4]; r-bFGF 0.1 ng/ml): 0.27 µM
- IC50 ([4]; r-bFGF 1 ng/ml): 0.407 µM
- IC50 ([5]; 96 h, r-aFGF + r-bFGF 0 ng/ml): 0.0135 µM
- IC50 [5, 11]: 0.0135 µM
- IC50 [5, 12]: 0.014 µM
- IC50 ([5]; 96 h, r-aFGF + r-bFGF 0.16 ± 1 ng/ml): 0.0137 µM
- IC50 [5, 13]: 0.0141 µM
- IC50 [5, 14]: 0.0275 µM
- IC50 [5, 15]: 0.054 µM
- IC50 ([5]; r-aFGF 0 ng/ml): 0.0135 µM
- IC50 ([5]; r-aFGF 1 ng/ml): 0.013 µM
- IC50 ([5]; r-aFGF 10 ng/ml): 0.0137 µM
- IC50 ([5]; r-aFGF 50 ng/ml): 0.014 µM
- IC50 ([5]; r-bFGF 0 ng/ml): 0.0142 µM
- IC50 ([5]; r-bFGF 1 ng/ml): 0.0139 µM
- IC50 ([5]; r-bFGF 10 ng/ml): 0.0141 µM
- IC50 ([5]; r-bFGF 50 ng/ml): 0.0137 µM
- IC50 ([6]; r-bFGF 0 ng/ml): 0.0103 µM
- IC50 ([6]; r-bFGF 1 ng/ml): 0.0183 µM
- IC50 ([6]; r-bFGF 10 ng/ml): 0.54 µM
- IC50 ([6]; r-bFGF 50 ng/ml): 0.238 µM
- IC50 ([7]; HT-29, 96 h, r-aFGF + r-bFGF 0 ng/ml): 0.0302 µM
- IC50 ([7]; HT-29, 96 h, r-aFGF + r-bFGF 0.04 ± 1 ng/ml): 0.0291 µM
- IC50 ([7]; HT-29, 96 h, r-aFGF + r-bFGF 0.08 ± 1 ng/ml): 0.03 µM
- IC50 ([7]; HT-29, 96 h, r-aFGF + r-bFGF 0.16 ± 1 ng/ml): 0.0305 µM
- IC50 ([7]; HT-29, 96 h, r-aFGF + r-bFGF 0.32 ± 1 ng/ml): 0.0481 µM
- IC50 ([7]; HT-29, 96 h, r-aFGF + r-bFGF 0.64 ± 1 ng/ml): 0.0727 µM
- IC50 ([7]; HT-29, 96 h, r-aFGF + r-bFGF 1 ± 1 ng/ml): 0.131 µM
- IC50 ([7]; HT-29, r-aFGF 0 ng/ml): 0.0302 µM
- IC50 ([7]; HT-29, r-aFGF 1 ng/ml): 0.0321 µM
- IC50 ([7]; HT-29, r-aFGF 10 ng/ml): 0.0303 µM
- IC50 ([7]; HT-29, r-aFGF 50 ng/ml): 0.03 µM
- IC50 ([7]; HT-29, r-bFGF 0 ng/ml): 0.0241 µM
- IC50 ([7]; HT-29, r-bFGF 1 ng/ml): 0.0244 µM
- IC50 ([7]; HT-29, r-bFGF 10 ng/ml): 0.0245 µM
- IC50 ([7]; HT-29, r-bFGF 50 ng/ml): 0.0261 µM
- IC50 ([8]; 96 h, r-aFGF + r-bFGF 0 ng/ml): 0.0082 µM
- IC50 [8, 11]: 0.0085 µM
- IC50 [8, 12]: 0.0152 µM
- IC50 [8, 13]: 0.0622 µM
- IC50 [8, 14]: 0.0848 µM
- IC50 [8, 15]: 0.107 µM
- IC50 ([8]; 96 h, r-aFGF + r-bFGF): 0.0353 µM
- IC50 ([8]; r-aFGF 0 ng/ml): 0.0082 µM
- IC50 ([8]; r-aFGF 1 ng/ml): 0.0083 µM
- IC50 ([8]; r-aFGF 10 ng/ml): 0.0081 µM
- IC50 ([8]; r-aFGF 50 ng/ml): 0.0084 µM
- IC50 ([8]; r-bFGF 0 ng/ml): 0.0081 µM
- IC50 ([8]; r-bFGF 1 ng/ml): 0.00851 µM
- IC50 ([8]; r-bFGF 10 ng/ml): 0.0238 µM
- IC50 ([8]; r-bFGF 50 ng/ml): 0.0508 µM
- IC50 ([9]; MCF7, r-bFGF 0 ng/ml): 0.0169 µM
- IC50 ([9]; MCF7, r-bFGF 0.01 ng/ml): 0.0213 µM
- IC50 ([9]; MCF7, r-bFGF 0.1 ng/ml): 0.0376 µM
- IC50 ([9]; MCF7, r-bFGF 1 ng/ml): 0.595 µM
- IC50 [10]: 0.018 ± 0.011 µM
SMILES: COc1cccc2c1C(=O)c1c(O)c3c(c(O)c1C2=O)C[C@@](O)(C(=O)CO)C[C@@H]3O[C@H]1C[C@H](N)[C@H](O)[C@H](C)O1 [Doxorubicin]
- Remaining cell number at 72 hours (% of control) ([1]; drug concentration 20 NM): 84%
- Remaining cell number at 72 hours × 10^6 ([1]; drug concentration 20 NM): 2.1 × 10^6
- Extracellular LDH, % of control ([1]; drug concentration 20 NM): 119 % of control
- Extracellular bFGF, % of control ([1]; drug concentration 20 NM): 124 % of control
- Extracellular concentration bFGF ([1]; drug concentration 20 NM): 5.87 pg/mL
- Remaining cell number at 72 hours (% of control) ([1]; drug concentration 60 NM): 48%
- Remaining cell number at 72 hours × 10^6 ([1]; drug concentration 60 NM): 1.2 × 10^6
- Extracellular LDH, % of control ([1]; drug concentration 60 NM): 173 % of control
- Extracellular bFGF, % of control ([1]; drug concentration 60 NM): 239 % of control
- Extracellular concentration bFGF ([1]; drug concentration 60 NM): 11.3 pg/mL
- Remaining cell number at 72 hours (% of control) ([1]; drug concentration 200 NM): 16%
- Remaining cell number at 72 hours × 10^6 ([1]; drug concentration 200 NM): 0.4 × 10^6
- Extracellular LDH, % of control ([1]; drug concentration 200 NM): 316 % of control
- Extracellular bFGF, % of control ([1]; drug concentration 200 NM): 461 % of control
- Extracellular concentration bFGF ([1]; drug concentration 200 NM): 21.8 pg/mL
